Series [1] can be described thus: Toxicity in Artemia salina. It counts as organism-based. To be noted: in vivo.
The test system of series [2] is MCF7. As to the kind of experiment: Cytotoxicity against human MCF7 cells. It counts as functional, cell-based.
In series [3] the test system is A549. As to the kind of experiment: Cytotoxicity against human A549 cells. It counts as functional, cell-based.
Series [4] concerns Agrobacterium tumefaciens. Kind of series: Inhibition of growth of crown gall tumors in Agrobacterium tumefaciens with tumor-inducing plasmid on potato disk. Type of series: functional.
Series [5] has as its system HT-29. As to the kind of experiment: Cytotoxicity against human HT29 cells. Type of series: functional, cell-based.

In brackets after ≈: the same amount, converted by molar mass.

Usually LC50 stands for the concentration that kills 50% of the test population. Broadly, the IC50 is the concentration that inhibits the measured activity by half.

The molecule `CCCCCCCCCCCCCC[C@H](O)[C@@H]1CC[C@H]([C@H](O)CC[C@H](O)CCCCC[C@@H](O)CC2=C[C@H](C)OC2=O)O1` registered an LC50 in series [1] of 5.2 µg/mL (≈ 8.71 µM). Further, the figures for the IC50 in series [2], in series [3] and in series [5] were 1.05 µg/mL (≈ 1.76 µM), 0.13 µg/mL (≈ 0.218 µM) and 0.0053 µg/mL (≈ 0.00888 µM), respectively. Moreover, in series [4], the “inhibition (INH)” value stood at 47%.

For the molecule `CCCCCCCCCCCC[C@@H]1OCO[C@H](CCC[C@H](O)CCCCC[C@@H](O)CC2=C[C@H](C)OC2=O)[C@@H]2CC[C@@H]1O2`, the 50% inhibitory concentration (IC50) in series [2] was 2.6 µg/mL (≈ 4.37 µM); in series [3], 0.079 µg/mL (≈ 0.133 µM); in series [5], 2.1 µg/mL (≈ 3.53 µM). For the same molecule, the “inhibition (INH)” value in series [4] turned out to be 22%.

Molecule `CCCCCCCCCCCC[C@H](O)[C@@H]1CC[C@H]([C@H](O)CCCCC(=O)CCCCC[C@@H](O)CC2=C[C@H](C)OC2=O)O1` displayed a 50% lethal concentration (LC50) in series [1] of 1.8 µg/mL (≈ 3.03 µM). Also, the figures for the IC50 in series [2], in series [3] and in series [5] were 0.29 µg/mL (≈ 0.487 µM), 0.35 µg/mL (≈ 0.588 µM) and 0.0009 µg/mL (≈ 0.00151 µM), respectively. In series [4], the “inhibition (INH)” value is given as 32%.

Consider `CCCCCCCCCCCC[C@H](O)[C@@H]1CC[C@H]([C@H](O)CCCC[C@H](O)CCCCC[C@@H](O)CC2=C[C@H](C)OC2=O)O1`, for which, in series [1], the LC50 is 2.3 µg/mL (≈ 3.85 µM). The values for the IC50 in series [2] and in series [3] were 1.18 µg/mL (≈ 1.98 µM) and 0.23 µg/mL (≈ 0.385 µM), respectively. Moreover, the “inhibition (INH)” value in series [4] came out at 28%.

In the case of `CCCCCCCCCCCCCC[C@H](O)[C@@H]1CC[C@H]([C@H]2CC[C@@H](CCCCC[C@@H](O)CC3=C[C@H](C)OC3=O)OCO2)O1`, the IC50 in series [2] came to 0.52 µg/mL (≈ 0.854 µM); in series [3], 0.53 µg/mL (≈ 0.87 µM); in series [5], 2.6 µg/mL (≈ 4.27 µM). Also, in series [4], the “inhibition (INH)” value worked out at 21%.

`CCCCCCCCCCCC[C@@H](O)[C@H]1CC[C@H]([C@H]2CC[C@H](CCCCCCC[C@@H](O)CC3=C[C@H](C)OC3=O)OCO2)O1` [ARIANACIN FORMAL]: the IC50 in series [2] was found to be 8.5 µg/mL (≈ 14 µM); in series [3], 0.02 µg/mL (≈ 0.0328 µM); in series [5] it was 1 µg/mL (≈ 1.64 µM). The “inhibition (INH)” value in series [4] came to 28%.

In series [1], `CCCCCCCCCCCC[C@@H](O)[C@H]1CC[C@H]([C@H](O)CC[C@@H](O)CCCCCCC[C@@H](O)CC2=C[C@H](C)OC2=O)O1` [ARIANACIN] came in with an LC50 of 7.1 µg/mL (≈ 11.9 µM). Besides, the IC50 in series [2] was determined as 0.4 µg/mL (≈ 0.67 µM); in series [3], 0.0047 µg/mL (≈ 0.00787 µM); in series [5], 4.4 µg/mL (≈ 7.37 µM). In series [4], the “inhibition (INH)” value was found to be 26%.

As for `COc1cccc2c1C(=O)c1c(O)c3c(c(O)c1C2=O)C[C@@](O)(C(=O)CO)C[C@@H]3O[C@H]1C[C@H](N)[C@H](O)[C@H](C)O1` [DOXORUBICIN], the IC50 in series [3] amounted to 0.0004 µg/mL (≈ 0.000736 µM); in series [5], 0.00051 µg/mL (≈ 0.000938 µM).

For the molecule `CCCCCCCCCCCCCC[C@@H](O)[C@H]1CC[C@H]([C@H]2CC[C@@H](CCCCC[C@@H](O)CC3=C[C@H](C)OC3=O)OCO2)O1` [GONIOTHALAMICIN FORMAL], the IC50 in series [2] was found to be 1.03 µg/mL (≈ 1.69 µM); in series [3], 0.025 µg/mL (≈ 0.0411 µM); in series [5], 1.13 µg/mL (≈ 1.86 µM).

For `CCCCCCCCCCCCCC[C@@H](O)[C@H]1CC[C@H]([C@H](O)CC[C@H](O)CCCCC[C@@H](O)CC2=C[C@H](C)OC2=O)O1` [GONIOTHALAMICIN], the LC50 in series [1] stood at 0.6 µg/mL (≈ 1.01 µM). Also, the IC50 in series [2] turned out to be 0.057 µg/mL (≈ 0.0955 µM); in series [3], 0.008 µg/mL (≈ 0.0134 µM); in series [5], 0.0011 µg/mL (≈ 0.00184 µM).

Consider `CCCCCCCCCCCC[C@@H](O)[C@H]1CC[C@H]([C@H]2CC[C@@H](CCCCCCC[C@@H](O)CC3=C[C@H](C)OC3=O)OCO2)O1` [JAVORICIN FORMAL], for which the results for the IC50 in series [2], in series [3] and in series [5] were 2.9 µg/mL (≈ 4.76 µM), 0.02 µg/mL (≈ 0.0328 µM) and 5.6 µg/mL (≈ 9.2 µM), respectively. Besides, the “inhibition (INH)” value in series [4] worked out at 31%.

The molecule `CCCCCCCCCCCC[C@@H](O)[C@H]1CC[C@H]([C@H](O)CC[C@H](O)CCCCCCC[C@@H](O)CC2=C[C@H](C)OC2=O)O1` [JAVORICIN] returned an LC50 in series [1] of 4.9 µg/mL (≈ 8.21 µM). In addition, the IC50 in series [2] amounted to 0.23 µg/mL (≈ 0.385 µM); in series [3], 0.017 µg/mL (≈ 0.0285 µM); in series [5], 1.8 µg/mL (≈ 3.02 µM). The “inhibition (INH)” value in series [4] came out at 47%.
